Where two headings read alike, the source gives them in different places.
Experiments:
Type in all cases: in vivo
[1] = test system: Myzus persicae; test: Green peach aphid (Myzus persicae) systemic test, artificial diet in 96-well microtiter plates; details: 72 h, read-out: mortality in comparison with untreated controls
Method: If not otherwise specified, the test solutions were prepared as follow:
The active compound was dissolved at the desired concentration in a mixture of 1:1 (vol:vol) distilled water:acetone. The test solution was prepared on the day of use.
B.1 Green Peach Aphid (Myzus persicae)
For evaluating control of green peach aphid (Myzus persicae) through systemic means, the test unit consisted of 96-well-microtiter plates containing liquid artificial diet under an artificial mem brane.
The compounds were formulated using a solution containing 75% v/v water and 25% v/v DMSO. Different concentrations of formulated compounds were pipetted into the aphid diet, using a custom built pipetter, at two replications.
After application, 5-8 adult aphids were placed on the artificial membrane inside the microtiter plate wells. The aphids were then allowed to suck on the treated aphid diet and incubated at about 23±1° C. and about 50±5% relative humidity for 3 days. Aphid mortality and fecundity was then visually assessed.

[2] = test system: Heliothis virescens; test: Tobacco budworm (Heliothis virescens) egg/larval test on insect diet in 96-well microtiter plates; details: 120 h, read-out: mortality in comparison with untreated controls
Method: B.2 Tobacco Budworm (Heliothis virescens)
For evaluating control of tobacco budworm (Heliothis virescens), the test unit consisted of 96-well-microtiter plates containing an insect diet and 15-25 H. virescens eggs.
The compounds were formulated using a solution containing 75% v/v water and 25% v/v DMSO. Different concentrations of formulated compounds were sprayed onto the insect diet at 10 μl, using a custom-built micro atomizer, at two replications.
After application, microtiter plates were incubated at about 28±1° C. and about 80±5% relative humidity for 5 days. Egg and larval mortality was then visually assessed.

[3] = test system: Aedes aegypti; test: whole plant or invertebrate; details: 48 h, larval mortality, 2 days, read-out: mortality in comparison with untreated controls
Method: B.5 Yellow Fever Mosquito (Aedes aegypti)
For evaluating control of yellow fever mosquito (Aedes aegypti) the test unit consisted of 96-well-microtiter plates containing 200 μl of tap water per well and 5-15 freshly hatched A. aegypti larvae.
The active compounds were formulated using a solution containing 75% (v/v) water and 25% (v/v) DMSO. Different concentrations of formulated compounds or mixtures were sprayed onto the insect diet at 2.5 μl, using a custom-built micro atomizer, at two replications.
After application, microtiter plates were incubated at 28±1° C., 80±5% RH for 2 days. Larval mortality was then visually assessed.

[4] = test system: Anthonomus grandis; test: Boll weevil (Anthonomus grandis) egg/larval test on insect diet in 96-well microtiter plates; details: 120 h, read-out: mortality in comparison with untreated controls
Method: B.3 Boll Weevil (Anthonomus grandis)
For evaluating control of boll weevil (Anthonomus grandis), the test unit consisted of 96-well-microtiter plates containing an insect diet and 5-10 A. grandis eggs.
The compounds were formulated using a solution containing 75% v/v water and 25% v/v DMSO. Different concentrations of formulated compounds were sprayed onto the insect diet at 5 μl, using a custom-built micro atomizer, at two replications.
After application, microtiter plates were incubated at about 25±1° C. and about 75±5% relative humidity for 5 days. Egg and larval mortality was then visually assessed.

[5] = test system: Spodoptera eridania; test: Southern armyworm (Spodoptera eridania), 2nd instar larvae, foliar spray on lima bean plants; details: 96 h, 2nd instar larvae on sprayed lima bean, 4 days after treatment, read-out: mortality in comparison with untreated controls
Method: B.4. Southern Armyworm (Spodoptera eridania), 2nd Instar Larvae
The active compounds were formulated by a Tecan liquid handler in 100% cyclohexanone as a 10,000-ppm solution supplied in tubes. The 10,000-ppm solution was serially diluted in 100% cyclohexanone to make interim solutions. These served as stock solutions for which final dilutions were made by the Tecan in 50% acetone:50% water (v/v) into 10 or 20 ml glass vials. A non-ionic surfactant (Kinetic®) was included in the solution at a volume of 0.01% (v/v). The vials were then inserted into an automated electrostatic sprayer equipped with an atomizing nozzle for application to plants/insects. Lima bean plants (variety Sieva) were grown 2 plants to a pot and selected for treatment at the 1st true leaf stage. Test solutions were sprayed onto the foliage by an auto-mated electrostatic plant sprayer equipped with an atomizing spray nozzle. The plants were dried in the sprayer fume hood and then removed from the sprayer. Each pot was placed into perforated plastic bags with a zip closure. Ten to 11 armyworm larvae were placed into the bag and the bags zipped closed. Test plants were maintained in a growth room at about 25° C. and about 20-40% relative humidity for 4 days, avoiding direct exposure to fluorescent light (14:10 light:dark photoperiod) to prevent trapping of heat inside the bags. Mortality and reduced feeding were assessed 4 days after treatment, compared to untreated control plants.

[6] = 2500 ppm, adult aphids on treated artificial diet, 3 days
[7] = 2500 ppm, egg and larval mortality, 5 days

CC(NC(=O)c1cc(C(F)(F)F)cc(C(F)(F)F)c1)c1nccnc1C(N)=NO (stereo not shown) [I-3, N-[1-[3-[N′-hydroxycarbamimidoyl]pyrazin-2-yl]ethyl]-3,5-bis(trifluoromethyl)benzamide]
≥ 75%: mortality at 2500 ppm [1, 6] | mortality at 2500 ppm [2, 7] | mortality at 2500 ppm [3] | mortality at 2500 ppm [4, 7]

CON=C(N)c1nccnc1C(C)NC(=O)c1cc(C(F)(F)F)cc(C(F)(F)F)c1 (stereo not shown) [I-5, N-[1-[3-[N′-methoxycarbamimidoyl]pyrazin-2-yl]ethyl]-3,5-bis(trifluoromethyl)benzamide]
≥ 75%: mortality at 2500 ppm [1, 6] | mortality at 300 ppm [5] | mortality at 2500 ppm [2, 7] | mortality at 2500 ppm [3] | mortality at 2500 ppm [4, 7]

CON=C(C)c1nccnc1C(C)N(CC1CC1)C(=O)c1cc(C(F)(F)F)cc(C2(C#N)CC2)c1 (stereo not shown) [I-9, 3-(1-cyanocyclopropyl)-N-(cyclopropylmethyl)-N-[1-[3-(N-methoxy-C-methyl-carbonimidoyl)pyrazin-2-yl]ethyl]-5-(trifluoromethyl)benzamide]
≥ 75%: mortality at 2500 ppm [1, 6] | mortality at 300 ppm [5] | mortality at 2500 ppm [3]

CON=C(C)c1nccnc1C(C)N(CC1CC1)C(=O)c1cc(Cl)cc(S(=O)(=O)c2ccc(F)cc2)c1 (stereo not shown) [I-17, 3-chloro-N-(cyclopropylmethyl)-5-(4-fluorophenyl)sulfonyl-N-[1-[3-(N-methoxy-C-methyl-carbonimidoyl)pyrazin-2-yl]ethyl]benzamide]
≥ 75%: mortality at 300 ppm [5] | mortality at 2500 ppm [3] | mortality at 2500 ppm [4, 7]

CCN(C)C(=NO)c1nccnc1C(C)NC(=O)c1cc(C(F)(F)F)cc(C(F)(F)F)c1 (stereo not shown) [I-170, N-[1-[3-(N-ethyl-N′-hydroxy-N-methyl-carbamimidoyl)pyrazin-2-yl]ethyl]-3,5-bis(trifluoromethyl)benzamide]
≥ 75%: mortality at 2500 ppm [1] | mortality at 2500 ppm [2] | mortality at 2500 ppm [3] | mortality at 2500 ppm [4]

— patent US20250107528A1, “PYRAZINE COMPOUNDS FOR THE CONTROL OF INVERTEBRATE PESTS” (BASF SE, priority 2021, published 2025)
